{
  "source": "patent US20160202261A1",
  "about": "(priority 2011, published 2016)",
  "key": {"[1]": {"test_system": "VASP Ser157 and Ser239 phosphorylation in T84 and HCT116 colon cancer cells", "assay_type": "cell-based, human"}, "[2]": {"test_system": "T84 human colon carcinoma cells", "assay_type": "cell-based"}},
  "data": [
    {"smiles": "Nc1nc2c(nc(Br)n2[C@@H]2O[C@@H]3COP(=O)(O)O[C@H]3[C@H]2O)c(=O)[nH]1", "note": "[8-br-cGMP]", "values": [
      {"measurement": "VASP phosphorylation at Ser157 and Ser239", "setting": "[1]", "value": "mimicked"},
      {"measurement": "Filopodia frequency and length", "setting": "[2]", "value": "impaired"}
    ]}
  ]
}
